Laboratory results published in patent US12285403B2, “A2-73 as a therapeutic for insomnia, anxiety and agitation” (Anavex Life Sciences Corp., priority 2016, dated 2025).

What was measured:
[1] = test system: mild-to-moderate AD patients; assay: Hamilton Depression Rating Scale (HAM-D), open-label Phase 2a clinical trial; type: in vivo, human; conditions: for Insomnia HAM-D Q5 Middle Insomnia, Mean ± SD / Insomnia HAM-D Q6 Late Insomnia, Mean ± SD / Insomnia HAM-D Q4 Initial Insomnia, Mean ± SD: score 0-2; for Insomnia HAM-D Q5 Middle Insomnia, Mean ± SD: baseline 1.5 ± 0.7; for Insomnia HAM-D Q6 Late Insomnia, Mean ± SD: baseline 1.6 ± 0.5; for Insomnia HAM-D Q4 Initial Insomnia, Mean ± SD: baseline 2 ± 0.0
Description: Efficacy data is presented through 31 week from the randomized (into different treatment regimens) open-label study with ANAVEX 2-73 oral daily dosing ranging from 10 mg to 50 mg. The data establish a method for treating insomnia, anxiety, or agitation in a subject. Efficacy extends to daily doses of up to about 100 mg of […], A1-41 or A19-144. Note is made of doses of A2-73, A1-41 or A19-144 of about 10 mg to about 30 mg, about 20 mg to about 40 mg, about 50 mg to about 80 mg. Oral dosing daily or every other day is contemplated.
This is consistent with Table 1 showing a reduction in insomnia, anxiety, and other symptoms.
The data of Table 1 is from an open-label, clinical trial, performed on a group of 30 mild-to-moderate AD patients (MMSE range 16-23, 40% female) on donepezil treatment, with ANAVEX 2-73.

[2] = test system: mild-to-moderate Alzheimer's disease patients; assay: EEG/ERP (P300) target detection task, Phase 2a study; type: in vivo, human; conditions: for False Alarms / P300 Amplitude / Task Accuracy / Reaction Time: mean ± SEM; for False Alarms: baseline 3.4 ± 1.0, healthy control 1.1 ± 0.2; for P300 Amplitude: baseline 5.99 ± 0.58, healthy control 7.36 ± 0.39; for Task Accuracy: baseline 83.8 ± 3.8, healthy control 94.1 ± 1.1; for Reaction Time: baseline 559.0 ± 24.0, healthy control 458.6 ± 11.4
Description: An event-related potential (ERP) is the measured brain response that is the direct result of a specific sensory, cognitive, or motor event. More formally, it is any stereotyped electrophysiological response to a stimulus. The study of the brain in this way provides a noninvasive means of evaluating brain functioning. ERPs are measured by means of electroencephalography (EEG). Particular efficacy data measurements addressed cognition and function. Cognitive measures include MMSE and Cogstate battery. Functional measures were ADCS-ADL. Supportive Biomarker Measurements include ERP (P300): fundamental measures of synaptic network performance and target engagement. ERP target detection task measures is a direct measure of attention, speed of brain processing, and simple functional performance. 2-73 Rescues Cognitive Effects on a Cellular Level on the subjects of the Phase 2a study. […] 2-73 effect on synaptic networks and effect on cognition and behavior at daily doses of 10 mg-50 mg is shown. ERP peak measures (P300) are shown. The P300 (P3) wave is an event related potential (ERP) component elicited in the process of decision making. It is considered to be an endogenous potential, as its occurrence links not to the physical attributes of a stimulus, but to a person's reaction to it. More specifically, the P300 is thought to reflect processes involved in stimulus evaluation or categorization. ERP target detection task is a direct measure of attention, speed of brain. processing, and simple behavioral performance. Psychometric measures (Cogstate) cognitive measures: Detection: processing speed (psychomotor function), Identification: reaction time (attention), One Back: working memory (cognition), One Card Learning: visual learning (visual memory), ISLT: verbal learning, ISLT-delay: verbal memory. Psychometric measures (MMSE): cognitive measures. Behavioral measures (ADCS-ADL): behavioral measures.

[3] = 30 mild-to-moderate AD patients on donepezil, open-label
[4] = 30 mild-to-moderate AD patients on donepezil, open-label, total 28 improvements

## CN(C)CC1CCOC1(c1ccccc1)c1ccccc1.Cl (centres unmarked) [A2-73, tetrahydro-N,N-dimethyl-2,2-diphenyl-3-furanmethanamine hydrochloride]
[1]; [3]
  Scored Improvement Count, improved item of HAM-D: Agitation: 4
  Scored Improvement Count, improved item of HAM-D: Anxiety (psychic and somatic): 5
  Scored Improvement Count, improved item of HAM-D: Depressed: 4
  Scored Improvement Count, improved item of HAM-D: Guilt: 1
  Scored Improvement Count, improved item of HAM-D: Hypochondriasis: 2
  Scored Improvement Count, improved item of HAM-D: Insight: 3
  Scored Improvement Count, improved item of HAM-D: Insomnia: 8
  Scored Improvement Count, improved item of HAM-D: Loss of libido or other genital symptoms: 2
  Scored Improvement Count, improved item of HAM-D: Work and activities: 6
[1]; [4]
  Scored Improvement in [%], improved item of HAM-D: Agitation: 14%
  Scored Improvement in [%], improved item of HAM-D: Anxiety (psychic and somatic): 18%
  Scored Improvement in [%], improved item of HAM-D: Depressed: 14%
  Scored Improvement in [%], improved item of HAM-D: Guilt: 4%
  Scored Improvement in [%], improved item of HAM-D: Hypochondriasis: 7%
  Scored Improvement in [%], improved item of HAM-D: Insight: 11%
  Scored Improvement in [%], improved item of HAM-D: Insomnia: 29%
  Scored Improvement in [%], improved item of HAM-D: Loss of libido or other genital symptoms: 7%
  Scored Improvement in [%], improved item of HAM-D: Work and activities: 21%
[1]; Day 13
  Insomnia HAM-D Q5 Middle Insomnia, Mean ± SD: 1.0 ± 1.4
  Insomnia HAM-D Q6 Late Insomnia, Mean ± SD: 0.0 ± 0.0
  Insomnia HAM-D Q4 Initial Insomnia, Mean ± SD: 2 ± 0.0
[1]; Week 12/26
  Insomnia HAM-D Q5 Middle Insomnia, Mean ± SD: 0.0 ± 0.0
  Insomnia HAM-D Q6 Late Insomnia, Mean ± SD: 0.0 ± 0.0
  Insomnia HAM-D Q4 Initial Insomnia, Mean ± SD: 0.0 ± 0.0
[1]; after 31 weeks of dosing, FIG. 7
  Overall Hamilton Depression Rating Scale (HAM-D): reduction
[1]; baseline to week 12
  Changes in other behavioral items (HAM-D): not statistically significant
[1]; baseline to week 12, t=4.2, p<0.05, 30 AD patients, listed as ANAVEX 2-73, hydrochloride
  Subjective reports of insomnia (sleep items of HAM-D): marked insomnia improvements
[1]; sum over all improved HAM-D items
  Scored Improvement Count, improved items of HAM-D: Total: 28
[2]; 5 Week
  False Alarms: 1.0 ± 0.5%
  Task Accuracy: 92.6 ± 2.4%
  Reaction Time: 492.6 ± 23.8 ms
[2]; 5 Week, daily 10 mg-50 mg
  P300 Amplitude: 7.09 ± 0.72 μV
[2]; 5 weeks, daily 10 mg-50 mg, FIG. 9
  All tested areas (ERP, Cogstate, MMSE, ADCS-ADL) vs starting baseline: improvement
[2]; 17 Week
  False Alarms: 1.2 ± 0.9%
  P300 Amplitude: 6.38 ± 0.61 μV
  Task Accuracy: 92.2 ± 3.9%
  Reaction Time: 498.8 ± 24.8 ms
[2]; 31 Week
  False Alarms: 2.6 ± 1.2%
  P300 Amplitude: 5.93 ± 0.77 μV
  Task Accuracy: 88.1 ± 4.4%
  Reaction Time: 521.8 ± 28.1 ms
